{
  "source": "paper PMC12162926",
  "about": "“A novel strategy for identifying hepatotoxic constituents in traditional Chinese medicine using dose-normalized intracellular accumulation as a cytotoxicity indicator: a case study of Jinlingzi San” (Frontiers in Pharmacology, 2025)",
  "key": {"[1]": {"set-up": "method as in Gu et al., 2021", "details": "pharmacokinetic level, JLZS vs single herb; ref Gu et al., 2021; cited from earlier work"}, "L-02 cells [2]": {"tested_on": "L-02 cells", "assay": "Intracellular accumulation in L-02 cells by LC–MS/MS", "type": "in vitro ADME, human", "details": "for Intracellular concentration: L-02, JLZS extracts 6.5 mg/mL, n = 6"}, "L-02 cells [3]": {"tested_on": "L-02 cells", "assay": "Cell growth inhibition assay (CCK-8)", "type": "cell-based, human", "details": "L-02, 24 h exposure, single compounds"}, "L-02 cells [4]": {"tested_on": "L-02 cells", "assay": "Intracellular identification of L-02 cell-uptake components by LC–MS/MS", "type": "in vitro ADME, human", "details": "L-02 exposed to JLZS-containing medium 6.5 mg/mL for 2 h", "experimental": "The powder of 25 g FT and 25 g RC was evenly blended and then refluxed twice with six-fold 50% ethanol (1: 6, w/v) for 1 h; the collected filtrate was evaporated to dryness and further dissolved in DMSO, after filtering using the 0.22-µm cellulose acetate membrane. JLZS-containing medium (6.5 mg/mL) was freshly prepared by diluting the filtrate with RPMI-1640. Likewise, RC-containing medium was freshly prepared in the same method independently.\nL-02 cells were seeded on 9-cm-diameter cell culture plates; after ∼80% confluent, the cultured cells were incubated with 6.5 mg/mL JLZS-containing medium. After 2-h exposure, L-02 cells were quickly washed free of culture medium with cold PBS (−) twice and harvested with 1 mL of 0.25% trypsin-EDTA for cell isolation. The cell suspension (∼5 × 10^6 cells) was spun down, and the cells were further washed twice in cold PBS (−). Then, 200 µL of methanol was used to lyse the collected cells with vortex mixing for 1 min. The cell lysates were centrifuged at 12,000 rpm for 4 min, and 10 μL of the centrifugal supernatant was injected into the LC–MS/MS system for identified analysis.\nThe LC–MS/MS system consisted of a Thermo TSQ Quantum Ultra triple-quadrupole mass spectrometer equipped with an electrospray ionization source (San Jose, CA, United States). LCquan quantitation software (version 2.5.6, Thermo Fisher Scientific, Waltham, MA, USA) was used to control the LC–MS/MS system for data acquisition and analysis. Analytes and IS separation were conducted using a Waters XTerra® MS C18 column (3.0 mm × 50 mm, 5 µm) maintained at 20 °C. By injecting 5 µL samples with a flow rate of 0.2 mL/min, chromatographic separation was achieved using a mobile phase of 0.1% formic acid–water (A) and methanol (B) via gradient elution, 0.0–2.0 min, 35%–50% B; 2.0–2.1 min, 50%–55% B; 2.1–2.5 min, 55%–60% B; 2.5–14.0 min, 60% B. The analytes and IS were detected in the ESI source by polarity switching from positive for 0.0–8.0 min to negative-ion modes for 8.5–14.0 min in a single run with multiple reaction monitoring (MRM)."}, "[5]": {"assay": "Stability of analytes in cell lysates (LC–MS/MS method validation)", "type": "physicochemical", "details": "n=3; for Post-preparation stability RE%: 4 ℃, 24 h at autosampler; for Short-term stability RE%: 12 h at room temperature; for Long-term stability RE%: -80℃ for a month; for Freeze-thaw stability RE%: three freeze-thaw", "experimental": "The stability of seven analytes including short-term stability (12 h at room temperature), post-preparation stability at 4 ℃ (24 h at autosampler), freeze-thaw stability (three freeze-thaw stability) and long-term stability (-80℃ for a month) was tested by analyzing three replicates at low and high QC levels during various sample storage and handling process."}},
  "data": [
    {"smiles": "CC(=O)O[C@@H]1C[C@H](O)[C@@]23CO[C@@H](O)[C@]1(C)[C@@H]2C[C@@H](O)[C@]1(C)[C@@H]3C(=O)[C@H](OC(C)=O)[C@@]2(C)[C@H](c3ccoc3)C[C@H]3O[C@]321", "note": "[TSN, toosendanin]", "values": [
      {"measurement": "elimination in the JLZS group compared with the single-herb group", "setting": "[1]", "value": "decreased significantly"},
      {"measurement": "Intracellular concentration", "setting": "L-02 cells [2]; time 0.25 h", "value": "10.4 ± 1.1", "unit": "ng/mL"},
      {"measurement": "Intracellular concentration", "setting": "L-02 cells [2]; time 0.5 h", "value": "13.6 ± 4.0", "unit": "ng/mL"},
      {"measurement": "Intracellular concentration", "setting": "L-02 cells [2]; time 1 h", "value": "38.5 ± 10.2", "unit": "ng/mL"},
      {"measurement": "Intracellular concentration", "setting": "L-02 cells [2]; time 1.5 h", "value": "32.8 ± 13.6", "unit": "ng/mL"},
      {"measurement": "Intracellular concentration", "setting": "L-02 cells [2]; time 2 h", "value": "20.1 ± 2.8", "unit": "ng/mL"},
      {"measurement": "Intracellular concentration", "setting": "L-02 cells [2]; time 3 h", "value": "23.8 ± 4.4", "unit": "ng/mL"},
      {"measurement": "Intracellular concentration", "setting": "L-02 cells [2]; time 5 h", "value": "26.4 ± 9.2", "unit": "ng/mL"},
      {"measurement": "Intracellular concentration", "setting": "L-02 cells [2]; time 8 h", "value": "15.5 ± 3.4", "unit": "ng/mL"},
      {"measurement": "exposure time at highest intracellular concentration", "setting": "L-02 cells [2]; L-02 exposed to JLZS 6.5 mg/mL", "value": 1, "unit": "h"},
      {"measurement": "IC50 (cell viability)", "setting": "L-02 cells [3]", "value": "not detected IC50 values within the set concentration range"},
      {"measurement": "detection in cell lysates", "setting": "L-02 cells [4]", "value": "found in the cell lysates"},
      {"measurement": "Post-preparation stability RE%", "setting": "[5]; high QC level", "value": 0.1, "unit": "%"},
      {"measurement": "Post-preparation stability RE%", "setting": "[5]; low QC level", "value": 7.6, "unit": "%"},
      {"measurement": "Short-term stability RE%", "setting": "[5]; high QC level", "value": -0.1, "unit": "%"},
      {"measurement": "Short-term stability RE%", "setting": "[5]; low QC level", "value": 8.0, "unit": "%"},
      {"measurement": "Long-term stability RE%", "setting": "[5]; high QC level", "value": 8.6, "unit": "%"},
      {"measurement": "Long-term stability RE%", "setting": "[5]; low QC level", "value": 10.2, "unit": "%"},
      {"measurement": "Freeze-thaw stability RE%", "setting": "[5]; high QC level", "value": -4.0, "unit": "%"},
      {"measurement": "Freeze-thaw stability RE%", "setting": "[5]; low QC level", "value": 6.2, "unit": "%"}
    ]}
  ]
}
